Laboratory results from US20020045591A1, “Methods and therapeutic compositions for treating cancer” (priority 1998, published 2002).
Non-standard residues stand in square brackets, D forms with d. Residues, ends and D or L forms follow the SMILES beside them. No end group written: not given here. *: point of attachment. Nle = CCCC[C@H](N)C(=O)O; Cbz = O=C(OCc1ccccc1)*

Key:
β-catenin [1] = experiment: β-catenin Western blot in Balb/C 3T3 cells treated with ubiquitin-proteasome inhibitors; format: cell-based, mouse; conditions: treated 4 hours, FIG. 17A
Procedure: (§1) Lactacystin A (dissolved in water at 0.4 mg/ml was used at a final concentration of 4 μg/ml) and MG-132 (used at 10 or 20 μM) were purchased from Calbiochem (La Jolla, Calif.).
Polyacrylamide Gel Electrophoresis and Immunoblotting: Equal amounts of total cell protein were separated by SDS PAGE, electro-transferred to nitrocellulose and incubated with monoclonal antibodies. The antigens were visualized by the enhanced chemiluminescence (Amersham, Buckinghampshire, U.K). In some experiments, cells were fractionated into Triton X-100-soluble and -insoluble fractions. Briefly, cells cultured on 35 mm dishes were incubated in 0.5 ml buffer containing 50 mM MES, pH 6.8, 2.5 mM EGTA, 5 mM MgCl2 and 0.5% Triton-X-100, at room temperature for 3 minutes. The Triton X-100-soluble fraction was removed, and the insoluble fraction was scraped into 0.5 ml of the same buffer. Equal volumes of the two fractions were analyzed by SDS PAGE followed by immunoblotting with the various antibodies.

plakoglobin = experiment: Plakoglobin Western blot in KTCTL60-PG cells treated with proteasome inhibitor; format: cell-based, human; conditions: 10 and 20 μM, FIG. 17B
Procedure: (§2) Cell Culture and Transfections: Canine kidney epithelial cells MDCK, human fibrosarcoma HT1080, 293-T human embryonic kidney cells, Balb/C mouse 3T3 and human colon carcinoma SW480 cell lines were cultured in Dulbecco's modified Eagle's medium supplemented with 10% calf serum (Gibco, Grand Island, N.Y.) at 37° C. in the presence of 7% CO2. The human renal carcinoma cell line KTCTL60 was grown in RPMI medium and 10% calf serum. Cells were transiently transfected with the cDNA constructs described below, using Ca^2+-phosphate or lipofectamine (Gibco) and the expression of the transgene was assessed between 24 and 48 hours after transfection. In some experiments, the expression of the stably transfected NH2 terminus-deleted β-catenin (Δ57) was enhanced in HT1080 cells by overnight treatment with 2 mM sodium butyrate.
as §1
(§3) Polyacrylamide Gel Electrophoresis and Immunoblotting: Equal amounts of total cell protein were separated by SDS PAGE, electro-transferred to nitrocellulose and incubated with monoclonal antibodies. […] Equal volumes of the two fractions were analyzed by SDS PAGE followed by immunoblotting with the various antibodies.

β-catenin [2] = experiment: β-catenin Western blot in KTCTL60 cells treated with proteasome inhibitor; format: cell-based, human; conditions: 10 and 20 μM, FIG. 17B
Procedure: as §2, §1, §3

HT1080 cells = experiment: Butyrate induction in HT1080 cells stably expressing ΔN57 β-catenin; format: cell-based, human
Procedure: as §2, with “In some experiments, the expression of the stably transfected NH2 terminus-deleted β-catenin (Δ57) was enhanced in HT1080 cells by overnight treatment with 2 mM sodium butyrate.” left out
Immunofluorescence Microscopy: Cells cultured on glass coverslips were fixed with 3.7% paraformaldehyde in PBS and permeabilized with 0.5% Triton X-100. […] Images of the fluorescent cells were recorded with a cooled, scientific grade CCD camera (Photometrics, Tucson, Ariz.). Integrated fluorescent intensities in transfected and nontransfected cells were determined, after the background was subtracted.
as §3

β-catenin [3] = target: T1, β-catenin (Cricetulus griseus, UniProt G3H996); experiment: β-catenin level in CHO cells by Western blot; format: cell-based; conditions: CHO cells transiently transfected with GFP-cadherin constructs, FIG. 7B
T1 construct: resulting from the stabilization of the endogenous β-catenin by the transfected cadherin derivatives; endogenous in cells; host or cells: CHO cells, stably or transiently transfected with cadherin derivatives only
T1 sequence (G3H996 1-781): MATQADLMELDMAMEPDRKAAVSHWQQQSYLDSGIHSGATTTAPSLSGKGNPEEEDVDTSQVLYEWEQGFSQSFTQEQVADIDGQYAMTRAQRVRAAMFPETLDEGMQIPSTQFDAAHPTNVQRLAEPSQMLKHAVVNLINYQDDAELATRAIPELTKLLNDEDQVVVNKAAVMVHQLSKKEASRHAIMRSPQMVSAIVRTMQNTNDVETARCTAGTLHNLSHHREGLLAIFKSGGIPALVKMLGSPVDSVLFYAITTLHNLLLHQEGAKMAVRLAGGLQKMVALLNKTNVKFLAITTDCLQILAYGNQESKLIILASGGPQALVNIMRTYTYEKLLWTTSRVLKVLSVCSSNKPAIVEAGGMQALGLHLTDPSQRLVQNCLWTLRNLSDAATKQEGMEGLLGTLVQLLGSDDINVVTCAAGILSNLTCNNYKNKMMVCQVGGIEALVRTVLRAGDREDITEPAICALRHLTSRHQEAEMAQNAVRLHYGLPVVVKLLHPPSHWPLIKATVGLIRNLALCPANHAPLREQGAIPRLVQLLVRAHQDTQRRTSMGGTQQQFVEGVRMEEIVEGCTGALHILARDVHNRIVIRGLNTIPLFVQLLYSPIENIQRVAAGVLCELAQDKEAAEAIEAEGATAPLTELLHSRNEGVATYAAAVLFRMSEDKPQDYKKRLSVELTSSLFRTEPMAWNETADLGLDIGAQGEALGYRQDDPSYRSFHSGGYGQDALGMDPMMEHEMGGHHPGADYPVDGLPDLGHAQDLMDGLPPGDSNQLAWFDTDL
Procedure: (§4) Cell culture and transfections: CHO and SW480 human colon carcinoma cells were cultured in Dulbecco's modified Eagle's medium containing 10% fetal calf serum in an 8% CO2 incubator at 37° C. Transfections were performed using Lipofectamine (Gibco, BRL, USA) according to the manufacturer's instructions. Stably transfected CHO clones were generated by co-transfection with a plasmid encoding the puromycin resistance gene. Two days after transfection, cells were replated in the presence of 10 μg/ml puromycin (Sigma, Holon, Israel). Stable clones were isolated 2 weeks later and tested for the expression of the transgene by Western blot analysis.
Immunoblotting and immunoprecipitation: The following antibodies were used: polyclonal pan-cadherin or monoclonal anti cadherin (CH-19) and polyclonal anti β-catenin antibodies were from Sigma (Holon, Israel). Monoclonal anti β-catenin, 5H10 (from M. Wheelock), anti IL2Rα (from UBI), anti flag (M2, from IBI), anti HA (clone 12CA5, from Boehringer Mannheim, Germany), anti GFP (polyclonal, from Clontech, Palo Alto, Calif.), anti LEF-1 (polyclonal, kindly provided by Dr. R. Grosschedl). Secondary antibodies for Western blotting were goat anti rabbit or anti mouse conjugated to HRP (Amersham, Buckinghampshire, UK), and for immunofluorescence analysis the secondary antibodies were FITC-goat anti mouse (Cappel, USA) or rhodamine-anti rabbit antibodies (from Jackson Immuno-Research, West Grove, Pa.). Cells were harvested in Laemmli's sample buffer and equal amounts of total cell protein from the different clones, or from transient transfections, were separated by SDS-PAGE, electrotransferred to nitrocellulose and incubated with the different antibodies. For immunoprecipitation, cells were harvested in IP buffer (20 mM Tris pH 8.0, 1% Triton X-100, 140 mM NaCl, 10% glycerol, 1 mM EGTA, 1.5 mM MgCl2, 1 mM DTT, 1 mM sodium vanadate, and 50 μg/ml PMSF). Equal amounts (500-700 μg) of cell protein were incubated with 1 μl of the relevant antibody for 2 hours at 4° C., followed by incubation with 20 μl of protein A+G/agarose beads (Santa Cruz Biotechnologies, Santa Cruz, Calif.) for an additional 2 hours at 4° C. The agarose beads were washed with 20 mM Tris pH 8.0, 150 mM NaCl, and 0.5% NP-40, and the immune complexes recovered by boiling in Laemmli's sample buffer and resolved by SDS-PAGE.

[4] = system: β-catenin-mediated transactivation; experiment: TOPFLASH luciferase transactivation in SW480 cells (Example 1); format: cell-based, human; conditions: SW480 cells, GFP-fused cadherin tail constructs, FIG. 7C
Procedure: as §4
Transactivation assays: CHO cells were transfected with TOPFLASH or FOPFLASH vectors (van de Wetering et al., 1997, ibid) and with pCDNA3 coding for β-galactosidase to normalize for transfection efficiency. The transfection mixture also contained either β-catenin, LEF-1 or cadherin derivatives in different combinations, as indicated. SW480 cells were transfected with TOPFLASH and cadherin derivatives. After 48 hours, cells were harvested and tested for luciferase and β-galactosidase activities as follows: Cells were washed 5 times with PBS, resuspended in PM-2 buffer (33 mM NaH2PO4, 66 mM Na2HPO4, 0.1 mM MnCl2, 2 mM MgSO4, 40 mM β-mercaptoethanol) and lysed by 5 cycles of freezing and thawing. Aliquots containing equal amounts of protein were incubated with O-Nitrophenyl-β-D-galactopyranoside (ONPG) at 37° C. until a yellow color appeared. The reactions were stopped with 1 M Na2CO3 and the absorbance at 420 nm was determined. Identical aliquots were tested for luciferase activity using luciferine buffer (100 mM Tris-O-Acetate pH 7.8, 10 mM Mg-O-Acetate, 1 mM EDTA, 74 μM luciferine (Boehringer Mannheim, Germany) and 2.22 mM ATP, pH 7.0). The luciferase reaction was monitored by a TD-20e luminometer (Turner, USA) and normalized for the β-galactosidase activity.
Distribution of N-cadherin derivatives and the effect on β-catenin transactivation in SW480 cells: SW480 colon carcinoma cells express mutant APC, low levels of E-cadherin and relatively high levels of free β-catenin. These cells also display very significant β-catenin-mediated transcription after transfection with TOPFLASH (FIG. 6A, lane 1). To determine the effect of cadherin on this β-catenin-driven transactivation, each of the three N-cadherin derivatives was transfected together with TOPFLASH into SW480 cells and luciferase activity determined. […] The most efficient inhibitor of this transactivation was the cadherin tail construct (FIG. 6A, lane 4), which inhibited the reporter gene by more than 85%. Full-length N-cadherin and the IL2R/N-cadherin chimera decreased the activity of the reporter by about 70% and 50%, respectively.

| Compound | effect on β-catenin (Western blot) (β-catenin [1]) | stabilization of β-catenin against degradation (β-catenin [3]) | inhibition of luciferase activity (LEF-1-driven transactivation) [4] | also measured |
| --- | --- | --- | --- | --- |
| CCCC[C@@H](C=O)NC(=O)[C@H](CC(C)C)NC(=O)[C@H](CC(C)C)NC(C)=O [ALLN, N-Acetyl-Leu-Leu-Norleucinal] (Ac-Leu-Leu-[Nle]-aldehyde) | appearance of higher molecular weight β-catenin forms |  |  |  |
| CC(=O)N[C@@H](CSC(=O)[C@]1([C@@H](O)C(C)C)NC(=O)[C@H](C)[C@@H]1O)C(=O)O [Lactacystin] | appearance of higher molecular weight β-catenin forms |  |  |  |
| CC(C)C[C@@H](C=O)NC(=O)[C@H](CC(C)C)NC(=O)[C@H](CC(C)C)NC(=O)OCc1ccccc1 [MG-132] (Cbz-Leu-Leu-Leu-aldehyde) | appearance of higher molecular weight β-catenin forms |  |  | effect on plakoglobin level (plakoglobin): moderate increase in plakoglobin; effect on β-catenin content (β-catenin [2]): dramatic elevation in β-catenin content |
| CCCC(=O)[O-].[Na+] [butyrate, sodium butyrate] |  |  |  | β-catenin localization (HT1080 cells; butyrate-treated, FIG. 14D): dramatic translocation of β-catenin into the nucleus; increase in expression of the transgene (western blot) (HT1080 cells; overnight 2 mM sodium butyrate, data not shown): about 2 fold |
| E30: E-cadherin tail fragment, amino acids 833-862, fused to GFP |  | ineffective in stabilizing β-catenin against degradation | did not affect β-catenin-mediated transactivation |  |
| E72: C-terminal 72 amino acids of E-cadherin (813-884) fused to GFP |  | could also stabilize β-catenin | 60% |  |
| N30: N-cadherin tail fragment, amino acids 862-891, fused to GFP (LVFDYEGSGSTAGSLSSLNSSSSGGEQDYD; also: fused to GFP) |  | ineffective in stabilizing β-catenin against degradation | did not affect β-catenin-mediated transactivation |  |
| N71: C-terminal 71 amino acids of N-cadherin (842-912) fused to GFP |  | could also stabilize β-catenin | 70% |  |
